From PubChem BioAssay (NCI)
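Compound exposure: 48 hours, 5 concentrations, 96-well plates. Here, GI50 denotes the concentration required for 50% inhibition of growth. The concentration for full growth arrest is given as TGI.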

Assays:
Experiment in all cases: DTP human tumour cell line panel, 48 h
[1] = test system: 786-0 renal
[2] = test system: A498 renal
[3] = test system: A549 NSCLC
[4] = test system: ACHN renal
[5] = test system: BT-549 breast
[6] = test system: CAKI-1 renal
[7] = test system: CCRF-CEM leukemia
[8] = test system: COLO 205 colon
[9] = test system: DU-145 prostate
[10] = test system: EKVX NSCLC
[11] = test system: HCC-2998 colon
[12] = test system: HCT-116 colon
[13] = test system: HCT-15 colon
[14] = test system: HL-60(TB) leukemia
[15] = test system: HOP-62 NSCLC
[16] = test system: HOP-92 NSCLC
[17] = test system: HS 578T breast
[18] = test system: HT29 colon
[19] = test system: IGROV1 ovarian
[20] = test system: K-562 leukemia
[21] = test system: KM12 colon
[22] = test system: LOX IMVI melanoma
[23] = test system: M14 melanoma
[24] = test system: MALME-3M melanoma
[25] = test system: MCF7 breast
[26] = test system: MDA-MB-231 breast
[27] = test system: MDA-MB-435
[28] = test system: MOLT-4 leukemia
[29] = test system: NCI-H226 lung

## CC1OC2CC(=O)OC2C2=C1C(=O)c1c(O)c3c(c(O)c1C2=O)C1CC(O)C3(O)C(C)O1 (stereo not drawn)
[1]
  GI50: 635 nM
  TGI: 1780 nM
[2]
  GI50: 1650 nM
  TGI: 3420 nM
[3]
  GI50: 869 nM
  TGI: 7740 nM
[4]
  GI50: 555 nM
  TGI: 10400 nM
[5]
  GI50: 1100 nM
  TGI: 2320 nM
[6]
  GI50: 224 nM
  TGI: 613 nM
[7]
  GI50: 260 nM
  TGI: 13600 nM
[8]
  GI50: 186 nM
  TGI: 453 nM
[9]
  GI50: 1380 nM
  TGI: 2690 nM
[10]
  GI50: 534 nM
  TGI: 1800 nM
[11]
  GI50: 442 nM
  TGI: 1670 nM
[12]
  GI50: 45.2 nM
  TGI: 252 nM
[13]
  GI50: 367 nM
  TGI: 3690 nM
[14]
  GI50: 234 nM
  TGI: 1060 nM
[15]
  GI50: 826 nM
  TGI: 2800 nM
[16]
  GI50: 1060 nM
  TGI: 3560 nM
[17]
  GI50: 429 nM
  TGI: 2920 nM
[18]
  GI50: 229 nM
  TGI: 1140 nM
[19]
  GI50: 329 nM
  TGI: 1700 nM
[20]
  GI50: 336 nM
  TGI: 11500 nM
[21]
  GI50: 664 nM
  TGI: 2020 nM
[22]
  GI50: 104 nM
  TGI: 476 nM
[23]
  GI50: 242 nM
  TGI: 662 nM
[24]
  GI50: 142 nM
  TGI: 385 nM
[25]
  GI50: 126 nM
  TGI: 366 nM
[26]
  GI50: 250 nM
  TGI: 712 nM
[27]
  GI50: 264 nM
  TGI: 591 nM
[28]
  GI50: 244 nM
  TGI: 640 nM
[29]
  GI50: 974 nM
  TGI: 3180 nM
